pIC50: −log10 of the molar value. Read-outs that look alike come from different tables or passages of the source.
How the values were obtained:
[1] = system: MeWO cells; experiment: MeWO melanoma cell viability; assay type: cell-based, human
Method: (§1) Cell lines. Mouse melanoma (SW1) and human melanoma (LU1205) cells were maintained in DMEM supplemented with 10% FBS, L-glutamine and antibiotics. The human melanoma cell lines MEWO and WM115 were maintained in RPMI supplemented with 10% FBS and antibiotics. Primary mouse melanocytes were cultured in F-12 media supplemented with 10% FBS, antibiotics, IBMX (isobuthyl-methylxantine), bovine pituitary extract, and TPA.
(§2) Mitochondrial activity and apoptosis. Cells were exposed to the chemicals for 12-48 hours as indicated in Results. To measure changes in mitochondrial activity reflective of general cell viability, the ATPLITE ATP detection assay was used according to the manufacturer's recommendations (Perkin Elmer). Apoptosis analysis was performed by flow cytometry of PI-stained cells. The percentage of cells to the left of the diploid G0/1 peak, characteristic of hypodiploid cells that have partially lost DNA, was calculated as percentage of apoptotic cells (Bhoumik et al., PNAS 101:4222-7, 2004). Analysis of changes in Caspase 8 expression pattern was performed using immunoblot analysis.
The effects of CSL and AIGA on the human melanoma cell lines WM115 and MEWO were assessed. […]

[2] = system: ATF2 transcriptional activity; experiment: Jun2-luciferase reporter assay in SW1 cells; assay type: cell-based; details: Mus musculus, Jun2-Luc, 8 h, read-out: concentration required to cause about 50% inhibition of ATF2 transcriptional activity
Method: (§3) Constructs and inhibitors. An ATF2 peptide (aa 51-100) was cloned into HA-tagged pcDNA3 vector as previously described (Bhoumik et al., Cancer Res 64:8222-30, 2004). 5×Jun2tk-Luc (marker for ATF2 transcriptional activities), 5×TRE-tk-Luc (marker for AP1/c-Jun transcriptional activities) and 2×NF-B-Luc were previously described (Bhoumik et al., J Clin Invest 110:643-50, 2002). Pharmacological inhibitor of JNK (SP600125) was purchased (EMD biosciences) and added (5 μM) to cultured cells as indicated in Results.
(§4) Transcriptional analysis. Transient transfection of different reporter constructs into melanoma cells was performed using LIPOFECTAMINE PLUS transfection reagent (Invitrogen). Luciferase activity was determined as previously described (Bhoumik et al., PNAS 101:4222-7, 2004).
These compounds were next assessed for their impact on ATF2 transcriptional activity. The effect of AIGA on ATF2 transcriptional activities was measured by the Jun2-luciferase assay. SW1 cells were transfected with the Jun2-luciferase plasmid and 24 h later cells were treated with the indicated concentrations of AIGA or CSL for 8 h before proteins were prepared and level of luciferase activity was measured. ATF2 51-100 peptide was used as a positive control. Data shown represent results from 3 experiments. […]

[3] = system: normal human breast cultures MCF10; experiment: Toxicity on normal human breast cultures; assay type: cell-based
[4] = system: normal mouse melanocytes; experiment: Normal melanocyte viability, ATPLITE; assay type: cell-based; details: 0.1 μM, 20 h
Method: as §1, §2
Characterization of CSL and AIGA effects on mouse melanoma cells. The structures of AIGA and CSL are depicted in FIGS. 1a and 1b. […] ATP levels were used as an indicator of cell viability and were measured using the ATPLITE ATP detection assay kit. […]

[5] = system: AP1/c-Jun transcriptional activity; experiment: TRE-luciferase reporter assay in SW1 cells; assay type: cell-based, mouse; details: 8 h; for AP1/c-Jun transcriptional activity (TRE-Luc): compounds compared with ATF2 peptide; for dose from which c-Jun transcriptional activity is induced: TRE-Luc
Method: as §3, §4
The effects of the two compounds on c-Jun transcriptional activity in mouse melanoma SW1 cells was assessed. SW1 cells were transfected with the TRE-luciferase plasmid and 24 h later, cells were treated with the indicated concentrations of AIGA or CSL for 8 h before proteins were prepared and level of luciferase activity was measured. ATF250-100 peptide was used as a positive control. Data shown represent results from 3 experiments. […] AIGA induced c-Jun transcriptional activity at doses starting from 0.1 μM (FIG. 2a).

[6] = system: SW1 melanoma cells; experiment: Apoptosis by FACS of PI-stained SW1 cells; assay type: cell-based, mouse; details: 48 h
Method: as §2
The finding that CSL and AIGA reduced cell viability in melanoma was made using the ATPLITE assay, which monitors the degree of mitochondrial ATP release, a marker for mitochondrial activity. To directly assess possible changes in the apoptosis of melanoma cells following their exposure to CSL or AIGA, FACS analysis of the melanoma cells was performed 48 h after treatment. […] Treatment with 1 μM AIGA caused 15% apoptosis in these melanoma cultures (FIG. 4a). Treatment with CSL caused 13% apoptosis at a dose of 0.5 μM and 35% apoptosis at a dose of 1 μM (FIG. 4b). Consistent with these finding is the activation of caspases 8, a classic marker for apoptosis, which was observed upon addition of these compounds, by Western blot analysis. SW1 cells were treated with 0.5 μM AIGA, 0.5 μM CSL, 1.0 μM CSL for 24 hours. Staurosporin was used as a positive control. Immunoblot analysis using caspase 8 antibody monitored full length and cleaved forms (active) of caspase 8. β-actin was used as a loading control.

[7] = system: human diploid fibroblasts (IMR90); experiment: Toxicity on human diploid fibroblasts; assay type: cell-based
Method: Characterization of CSL and AIGA effects on mouse melanoma cells. The structures of AIGA and CSL are depicted in FIGS. 1a and 1b. AIGA was tested for cytotoxicity at concentrations ranging between 0.1 and 2 μM, whereas CSL was used at a concentration of 0.01 to 0.3 μM. SW1 cells or normal melanocytes were seeded on 96 well plates and 24 h late, cells were treated with the indicated concentrations of ATF2 50-100 peptide, AIGA, or CSL for 20 h. ATF2 50-100 peptide (cloned in mammalian expression vector in frame with penetratin was transfected with the aid of lipofectamine) was used as a positive control. ATP levels were used as an indicator of cell viability and were measured using the ATPLITE ATP detection assay kit. The number of surviving cells upon AIGA treatment was normalized to the number of surviving cells under the control treatment, and the normalized number was designated as the “% Viability.” Results shown in FIGS. 1c-1f represent 3 experiments. Treatment of SW1 melanoma cells with 1 μM of AIGA reduced the viability of melanoma cells to 10%, (FIG. 1c). Treatment of the SW1 cells with 0.05 μM of CSL reduced the viability of melanoma cells to 50%, and 0.1 μM reduced it to 10% (FIG. 1d). […] Normal melanocytes and fibroblasts were used as a control.

Compound	concentration at which viability was reduced [1]	pIC50 [2]	toxic effect on normal human breast cultures MCF10 [3]	toxicity on normal mouse melanocytes [4]	AP1/c-Jun transcriptional activity (TRE-Luc) [5]	dose from which c-Jun transcriptional activity is induced [5]	% apoptosis of SW1 melanoma cells ([6]; 1 μM)	toxic effect on human diploid fibroblasts (IMR90) [7]	toxic effect on normal human breast cultures MCF10 ([3]; data not shown)	% apoptosis of SW1 melanoma cells ([6]; 0.5 μM)	toxic effect on human diploid fibroblasts (IMR90) ([7]; data not shown)
CC(=O)Oc1c2c(c(CC=C(C)C)c3c1C(=O)C1=C[C@@H]4CC5C(C)(C)OC(C/C=C(\C)C(=O)O)(C4=O)[C@@]15O3)OC(C)(CCC=C(C)C)C=C2 (stereo partly shown) [AIGA, Acetyl isogambogic acid]	0.5 to 2 µM	~6.30	Neither CSL nor AIGA elicited toxic effect	40%	stronger activation of c-Jun transcription	≥ 0.1 µM	15%	Neither CSL nor AIGA elicited toxic effect	–	–	–
CC1=C(O)C(=O)C=C2C1=CC=C1[C@@]2(C)CC[C@@]2(C)[C@@H]3C[C@](C)(C(=O)O)CC[C@]3(C)CC[C@]12C [Celastrol]	–	~7.30	–	10%	stronger activation of c-Jun transcription	≥ 0.01 µM	35%	–	Neither CSL nor AIGA elicited toxic effect	13%	Neither CSL nor AIGA elicited toxic effect
